Test results published in the NIST ThermoML archive (doi:10.1016/j.jct.2018.06.022).
Numbers after ± are expanded uncertainties.

Conditions: Liquid, Closed cell (Static) method

O=C=O [carbon dioxide]
Conditions	vapor or sublimation pressure [kPa]
218.15 K	552.5 ± 18
233.15 K	1004.4 ± 18
243.15 K	1428 ± 18
258.15 K	2293.7 ± 18
273.15 K	3484.6 ± 19
288.19 K	5089.6 ± 19
302.94 K	7171.2 ± 21
